Measured values from US20190300851A1, “HUMAN STEM CELL DERIVED ENDOTHELIAL CELLS, ENDOTHELIAL-HEPATOCYTE CO-CULTURE SYSTEM AND USES THEREOF” (AGENCY FOR SCIENCE, TECHNOLOGY AND RESEARCH, priority 2016, published 2019).
Entries after “also recorded” stand apart in the source; their conditions may differ. Where two headings read alike, the source gives them in different places.

Tests used:
[1] = test system: IL-1β-stimulated hPSC-HEPs; assay: Inflammatory marker gene expression (qPCR) in IL-1β-stimulated hPSC-HEPs; assay type: cell-based, human; details: 10 μM, 48 hours
Experimental: (§1) Hepatocytes were generated from hPSCs by a growth factor-based differentiation protocol described in our previous protocol. After 20 days of differentiation, the cells were harvested using a serial 2× TrypLE Express treatment and further dissociated into single cells by passing them through a 40 μm cell strainer. These single cells were then seeded at 2.5×10^5 cells per well in a Collagen I (50 μg/ml, Biolaboratories, Cat. No.: 354236)-coated dishes. Attachment and recovery were promoted by seeding them in step IV differentiation medium with Hepatocyte growth factor (R&D, Cat. No.: 294-HGN-005), Follistatin (R&D, Cat. No.: FS-288), Oncostatin (R&D, Cat. No.: 295-OM-010) and Y-27632 (Rock Inhibitor) to prevent anoikis in the freshly harvested hPSC-HEPs. Next day, media was changed to Williams E medium (Sigma, Cat. No.: W1878) without serum and cells were serum starved overnight prior to nutraceutical treatments. Nutraceuticals quercetin (Sigma, Cat. No.: Q4951) and genistein (Sigma, Cat. No.: G6649) were administered at a single dose of 10 μM. Hepatocytes in this work were derived from H9-ESCs. In hepatic characterization, primary human hepatocytes (PHH) and HUH7 cells were used as positive controls, while HeLa cells were used as negative control.
Total RNA was prepared using RNeasy mini kit (Qiagen, cat. no. 74104). […]

[2] = test system: IL-8; assay: IL-8 ELISA of conditioned media of IL-1β-stimulated hPSC-ECs, monoculture; assay type: cell-based, human; details: for IL-8 protein levels from conditioned media: 10 μM, 48 hours, IL-1β-stimulated hPSC-ECs, monoculture
Experimental: (§2) After the hPSC colonies attached, they were first induced to drive early mesoderm differentiation for 36 hours, using a chemically defined media, supplemented with human recombinant FGF2 (20 ng/ml, R&D Systems, cat. no. 233-FB), LY294002 (10 μM, Sigma, cat. no. L9908), and human recombinant BMP4 (10 ng/ml, R&D Systems, cat. no. 314-BP). Lateral plate mesoderm was further induced for another 3.5 days in media supplemented with human recombinant FGF2 (20 ng/ml) and BMP4 (50 ng/ml), with media change every 2 days. On day 5, the lateral plate mesoderm population was trypsinized using TrypLE Express (Gibco, cat. no. 12604) and plated on matrigel-coated plates in the same basal media supplemented with FGF2 (4 ng/ml), SB431542 (10 μM, Sigma, cat. no. S4317) and VEGF (50 ng/ml, R&D Systems, cat. no. 293-VE) with media change every 2-3 days. On day 10, PECAM1-expressing endothelial cells were sorted using fluorescence-activated cell sorting with PECAM1 antibody (Biolegend, cat. no. 303110). The PECAM1+ cells were plated at a density of 5×10^4/cm^2 onto collagen I-coated plate in commercial media EGM-2 (Lonza, cat. no. CC-3162). For every 500 ml EGM-2 media used, the following supplements are included: human epidermal growth factor (0.5 ml); VEGF, 0.5 ml; R3-insulin growth factor-1, 0.5 ml; Ascorbic acid, 0.5 ml; Hydrocortisone, 0.2 ml; hFibroblast growth factor-beta, 2.0 ml; FBS, 10.0 ml; Gentamicin Amphotericin, 0.5 ml. hPSC-ECs were passaged using TrypLE Express when they reached more than 75% confluency. Fresh complete EGM-2 media were replaced every 2-3 days. All experiments were performed on cells up to passage 10. hPSC-ECs derived from three different cell lines, H9-ESCs (FIGS. 1-5), IMR90-iPSCs and BJ-iPSCs (FIGS. 7-8), were functionally characterized and used in inflammatory activation assays. In EC marker and functional characterization, human coronary artery ECs (HCAECs) were used as positive control, while HeLa cells and human hepatocellular carcinoma cells (HUH7) were used as negative controls.
(§3) Conditioned EGM-2 media were collected, and concentration of human IL-8 was determined using the human IL-8 ELISA kit (Invitrogen, cat. no. KHC0081) according to manufacturer's instructions.

[3] = test system: NFκB; assay: hPSC-HEP conditioned media on IL-1β-stimulated hPSC-ECs: NFκB nuclear translocation; assay type: cell-based, human; details: hPSC-HEP conditioned media (10 μM, 48 hour) on IL-1β-stimulated hPSC-ECs
Experimental: (§4) HPSC-HEPs (1.25×10^5 cells/cm^2) were cultured for 48 hour in 1:1 William's E medium+EGM-2 without serum containing 10 μM Quercetin or 10 μM Genistein. Conditioned media from hPSC-HEPs treated with quercetin or genistein were collected, and added to hPSC-ECs (that were serum starved overnight) along with 20 ng/ml of IL-13 for determination of NFκB nuclear colocalization (at 1 hour), gene expression profile of inflammatory markers (at 6 hour), and IL-8 protein levels (1 day) upon inflammation.
(§5) Cells were fixed with 4% paraformaldehyde (Nacalai Tesque, cat. no. 09154-14) and permeabilized by 0.5% Triton X-100 (Acros Organics, cat. no. 215680010) in PBS with Ca^2+ and MG^2+ at room temperature. Blocking was performed using PBS with 10% serum overnight at 4° C. Cells were incubated with the respective primary antibody diluted in 0.1% serum containing PBS for 1 hour and secondary antibodies in 0.1% serum containing PBS for another hour. Washes were performed twice using 0.1% serum containing PBS. DAPI (1 μg/ml, Thermo, cat. no. D3571) was used to stain the cell nucleus for 10 min.

[4] = cited from earlier work
[5] = test system: IL-8; assay: Endothelial-hepatocyte co-culture: IL-8 protein; assay type: cell-based, human; details: co-culture of hPSC-ECs with hPSC-HEPs, 10 μM for 48 hours prior to IL-1β stimulation
Experimental: (§6) H9-ESCs were used to generate the ECs and hepatocytes for co-culture experiments and assays with nutraceuticals. Both cell types were derived from an isogenic source of hPSC to ensure a robust endothelial-hepatic model without confounding phenotypic differences due to genetic variations. The IBIDI μ-slide 2×9 wells were used for creating the co-culture setup. Each minor well was first coated with Collagen I and then a total of 2.5×10^5 hPSC-ECs and hPSC-HEPs were seeded in individual wells in a 1:1 ratio within a major well to allow equivalent contribution of paracrine factors between the two cell types (FIG. 5A). After cell attachment, the media was changed to 1:1 William's E and EGM-2 without serum, to be commonly shared by hPSC-ECs and hPSC-HEPs in a major well. Upon overnight serum starvation, the co-cultures were pre-conditioned with 10 μM of Quercetin or Genistein for 48 hours prior to IL-1β stimulation.
as §3

[6] = test system: primary rat hepatocytes; assay: LC-MS metabolic profile of nutraceuticals by primary rat hepatocytes; assay type: in vitro ADME; details: 10 μM
Experimental: The metabolic potential of the hPSC-HEPs and primary rat hepatocytes (freshly isolated according to our previously established protocol) were tested by exposing them to nutraceuticals quercetin and genistein (10 μM) over different durations. Internal standard (Emodin, 10 ng/ml) was added to the conditioned media. The SPE column (Phenomenex, Strata C18-E, 55 μm, 70 Å) was conditioned by washing with 1 ml methanol and then 2 ml DI water. Conditioned media was added into the column and 1.5 mL 30% methanol was added to elute the impurity such as phenol red in the medium. 0.1% Formic acid methanol was added to the column to elute all the metabolites and internal standard out to a 15 mL tube. Liquid in the 15 mL tube was dried under N2 in a sample concentrator with 30° C. heater. After drying the sample, 100 μL of 0.1% formic acid methanol was added to the 15 mL tube and vortex for 30 s and transfer to another 1.5 mL tube. The samples were then centrifuged at 13,000 rpm for 10 min at 4° C. and 10 μl of the supernatant was injected into LC-MS. High performance liquid chromatography combined with electrospray ionization ion trap time-of-flight multistage mass spectrometry (HPLC-DAD-ESI-ITTOF-MSn) analyses were performed with a Shimadzu LCMS-IT-TOF instrument, which was composed of two LC-20AD pumps, an SIL-20AC autosampler, a CTO-20A column oven, a CBM-20A system controller, an ESI ion source, and an IT-TOF mass spectrometer (Shimadzu, Kyoto, Japan).

[7] = test system: co-culture of hPSC-ECs and hPSC-HEPs; assay: LC-MS metabolite profile in co-cultured media of hPSC-ECs and hPSC-HEPs; assay type: in vitro ADME, human
Experimental: as §6
(§7) The metabolic potential of the hPSC-HEPs and primary rat hepatocytes (freshly isolated according to our previously established protocol) were tested by exposing them to nutraceuticals quercetin and genistein (10 μM) over different durations. Internal standard (Emodin, 10 ng/ml) was added to the conditioned media. The SPE column (Phenomenex, Strata C18-E, 55 μm, 70 Å) was conditioned by washing with 1 ml methanol and then 2 ml DI water. […]

[8] = test system: hPSC-HEPs; assay: LC-MS metabolic profile of nutraceuticals by hPSC-HEPs; assay type: in vitro ADME, human; details: 10 μM
Experimental: as §1
as §7, with “water. Conditioned media was added into the column and 1.5 mL 30% methanol was added to elute the impurity such as phenol red in the medium. 0.1% Formic acid methanol was added to the column to elute all the metabolites and internal standard out to a 15 mL tube. Liquid in the 15 mL tube was dried under N2 in a sample concentrator with 30° C. heater.” for “water.”

[9] = test system: IL-8; assay: IL-8 ELISA of conditioned media of IL-1β-stimulated hPSC-HEPs; assay type: cell-based, human; details: 10 μM, 48 hours
Experimental: as §1, with “In hepatic characterization, primary human hepatocytes (PHH) and HUH7 cells were used as positive controls, while HeLa cells were used as negative control.” left out
as §3

[10] = test system: NFκB; assay: Endothelial-hepatocyte co-culture: NFκB nuclear translocation in IL-1β-stimulated hPSC-ECs; assay type: cell-based, human; details: co-culture of hPSC-ECs with hPSC-HEPs, 10 μM for 48 hours prior to IL-1β stimulation
Experimental: as §6
as §5, with “Washes were performed twice using 0.1% serum containing PBS. DAPI (1 μg/ml, Thermo, cat. no. D3571) was used to stain the cell nucleus for 10 min.” left out

[11] = test system: IL-1β-stimulated hPSC-ECs; assay: Inflammatory marker gene expression (qPCR) in IL-1β-stimulated hPSC-ECs, monoculture; assay type: cell-based; details: for gene expression of inflammatory markers versus IL-1β stimulated levels: 10 μM, up to 72 hours, IL-1β-stimulated hPSC-ECs, monoculture
Experimental: as §2
Total RNA was prepared using RNeasy mini kit (Qiagen, cat. no. 74104). Each RNA sample (250 ng) was reverse transcribed into cDNA using Maxima First Strand cDNA Synthesis kit (Thermo, cat. no. K1641). qPCR was performed on a StepOnePlus Real-Time PCR system (Thermo) using FAST SYBR green master mix (Thermo, cat. no. 4385616). Expression levels were normalized to the housekeeping gene glyceraldehyde 3-phosphate dehydrogenase (GAPDH).

[12] = test system: NFκB; assay: NFκB nuclear translocation (immunostaining) in IL-1β-stimulated hPSC-ECs, monoculture; assay type: cell-based, human; details: for NFκB nuclear translocation levels: 10 μM, IL-1β-stimulated hPSC-ECs, monoculture
Experimental: as §2, §5

[13] = test system: hPSC-HEP conditioned media treated on hPSC-ECs; assay: LC-MS metabolite profile in hPSC-HEP conditioned media treated on hPSC-ECs; assay type: in vitro ADME, human; details: conditioned media setting
Experimental: as §4
as §7, with “water. Conditioned media was added into the column and 1.5 mL 30% methanol was added to elute the impurity such as phenol red in the medium. 0.1% Formic acid methanol was added to the column to elute all the metabolites and internal standard out to a 15 mL tube. Liquid in the 15 mL tube was dried under N2 in a sample concentrator with 30° C. heater.” for “water.”

[14] = test system: hPSC-ECs; assay: LC-MS metabolic profile of nutraceuticals by hPSC-ECs; assay type: in vitro ADME, human; details: hPSC-EC conditioned media
[15] = higher concentrations; cited from earlier work
[16] = BJ-ECs and IMR90-ECs, IL-1β stimulation

Compound	inflammatory gene (marker) expression [1]	IL-8 protein levels from conditioned media [2]	NFκB nuclear translocation [3]	plasma concentrations [4] [nM]	IL-8 protein levels / secretion [5]	production of IL-8 protein from conditioned media [9]	NFκB nuclear translocation (colocalization) [10]	gene expression of inflammatory markers versus IL-1β stimulated levels [11]	NFκB nuclear translocation levels [12]	further results
O=c1c(-c2ccc(O)cc2)coc2cc(O)cc(O)c12 [genistein]	significant reduction; also recorded: decreased most of the inflammatory marker expression	no significant reduction	did not seem to inhibit	30 to 16340	remarkably decreased; also recorded: significantly reduced	significantly suppressed	significant suppression; also recorded: significantly decreased	did not show substantial reduction	remained elevated	level of parent nutraceutical over time ([6]; freshly isolated primary rat hepatocytes, LC-MS): declined over time; formation of metabolites ([6]; primary rat hepatocytes, LC-MS): giving rise to metabolites; metabolites detectable in medium ([7]; endothelial-hepatic co-culture, LC-MS): detectable levels of various metabolites; levels of metabolites over time ([8]; hPSC-HEPs, LC-MS): increased over time; also recorded: increased with time; also recorded: giving rise to metabolites; level of parent nutraceutical over time ([8]; in the presence of hPSC-HEPs, LC-MS): gradually declined over time; metabolites detectable in medium [13]: but not in the conditioned media setting
O=c1c(O)c(-c2ccc(O)c(O)c2)oc2cc(O)cc(O)c12 [quercetin]	significant reduction; also recorded: decreased most of the inflammatory marker expression	no significant reduction	did not seem to inhibit	300 to 3500	remarkably decreased; also recorded: significantly reduced	significantly suppressed	significant suppression; also recorded: significantly decreased	did not show substantial reduction	remained elevated	bioavailability in human plasma ([4]; human plasma): very low; time of treatment by which substantial metabolites had emerged ([6]; rat): ≤ 6 h; level of parent nutraceutical over time [14]: decrease over time; metabolites detectable in medium [7]: detectable levels of various metabolites; safety and tolerability [15]: safe and well tolerated; optimal duration of conversion into metabolites (most metabolites peaked) ([8]; human): 48 h
IL-1β: human recombinant inflammatory cytokine, interleukin-1 beta, used to stimulate inflammation [reference compound]										IL-8 production [2, 16]: elevated; production of IL-8 from conditioned media versus unstimulated cells ([2]; H9-derived hPSC-ECs, IL-1β-stimulated): significantly higher; expression of inflammatory genes [11, 16]: up-regulation; expression of inflammatory genes versus unstimulated ([11]; H9-derived hPSC-ECs, human recombinant IL-1β 20 ng/ml, 6 hours): significant up-regulation; NFκB nuclear translocation [12, 16]: increase; nuclear translocation of NFκB ([12]; H9-derived hPSC-ECs, IL-1β 20 ng/ml, 1 hour): evident
